Test results reported in the supplement of paper PMC10307832.

Legend:
Test in all cases: relative viability (nuclei count vs DMSO), 5 days (fraction); higher = more cells survive
SK-MES-1 = system: SK-MES-1
Procedure, shortened: (§1)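 Relative viability was taken as the ratio of nuclei in treated wells to nuclei in vehicle wells. Lung cancer cell lines in 1536-well plates received compounds by pin tool one day after seeding, either one drug alone or a fixed anchor-drug dose plus five library-drug doses (not always all listed) in √10 steps. Nuclei were counted on 4× images after 5 days of treatment, and values are medians of duplicate plates.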

COR-L 105 = system: COR-L 105
Procedure, shortened: as §1

HCC-827 = system: HCC-827
Procedure, shortened: as §1

HCC-44 = system: HCC-44
Procedure, shortened: as §1

SW 900 = system: SW 900
Procedure, shortened: as §1

NCI-H2087 = system: NCI-H2087
Procedure, shortened: as §1

H3255 = system: H3255
Procedure, shortened: as §1

NCI-H1793 = system: NCI-H1793
Procedure, shortened: as §1

NCI-H1975 = system: NCI-H1975
Procedure, shortened: as §1

NCI-H1915 = system: NCI-H1915
Procedure, shortened: as §1

NCI-H2023 = system: NCI-H2023
Procedure, shortened: as §1

LCLC-103H = system: LCLC-103H
Procedure, shortened: as §1

A-427 = system: A-427
Procedure, shortened: as §1

LXF-289 = system: LXF-289
Procedure, shortened: as §1

NCI-H1944 = system: NCI-H1944
Procedure, shortened: as §1

NCI-H520 = system: NCI-H520
Procedure, shortened: as §1

SW 1573 = system: SW 1573
Procedure, shortened: as §1

NCI-H522 = system: NCI-H522
Procedure, shortened: as §1

LOU-NH91 = system: LOU-NH91
Procedure, shortened: as §1

NCI-H1993 = system: NCI-H1993
Procedure, shortened: as §1

NCI-H358 = system: NCI-H358
Procedure, shortened: as §1

NCI-H2170 = system: NCI-H2170
Procedure, shortened: as §1

Compound: CCNC(=O)c1noc(-c2cc(C(C)C)c(O)cc2O)c1-c1ccc(CN2CCOCC2)cc1 [Luminespib] + O=C(CCCCCCC(=O)Nc1ccccc1)NO [Vorinostat] (partner 1 µM)
- relative viability (SK-MES-1; first compound 0.002 µM): 1.14
- relative viability (SK-MES-1; first compound 0.006325 µM): 0.931
- relative viability (SK-MES-1; first compound 0.02 µM): 1.04
- relative viability (SK-MES-1; first compound 0.06325 µM): 0.174
- relative viability (SK-MES-1; first compound 0.2 µM): 0.153
- relative viability (COR-L 105; first compound 0.002 µM): 0.917
- relative viability (COR-L 105; first compound 0.006325 µM): 0.84
- relative viability (COR-L 105; first compound 0.02 µM): 0.959
- relative viability (COR-L 105; first compound 0.06325 µM): 0.43
- relative viability (COR-L 105; first compound 0.2 µM): 0.278
- relative viability (HCC-827; first compound 0.002 µM): 0.817
- relative viability (HCC-827; first compound 0.006325 µM): 0.884
- relative viability (HCC-827; first compound 0.02 µM): 0.45
- relative viability (HCC-827; first compound 0.06325 µM): 0.797
- relative viability (HCC-827; first compound 0.2 µM): 0.144
- relative viability (HCC-44; first compound 0.002 µM): 1.1
- relative viability (HCC-44; first compound 0.006325 µM): 1.13
- relative viability (HCC-44; first compound 0.02 µM): 1.19
- relative viability (HCC-44; first compound 0.06325 µM): 1.11
- relative viability (HCC-44; first compound 0.2 µM): 0.924
- relative viability (SW 900; first compound 0.002 µM): 0.455
- relative viability (SW 900; first compound 0.006325 µM): 0.489
- relative viability (SW 900; first compound 0.02 µM): 0.266
- relative viability (SW 900; first compound 0.06325 µM): 0.124
- relative viability (SW 900; first compound 0.2 µM): 0.0992
- relative viability (NCI-H2087; first compound 0.002 µM): 0.667
- relative viability (NCI-H2087; first compound 0.006325 µM): 0.609
- relative viability (NCI-H2087; first compound 0.02 µM): 0.656
- relative viability (NCI-H2087; first compound 0.06325 µM): 0.111
- relative viability (NCI-H2087; first compound 0.2 µM): 0.122
- relative viability (H3255; first compound 0.002 µM): 0.843
- relative viability (H3255; first compound 0.02 µM): 0.625
- relative viability (H3255; first compound 0.06325 µM): 0.745
- relative viability (H3255; first compound 0.2 µM): 0.248
- relative viability (NCI-H1793; first compound 0.002 µM): 0.631
- relative viability (NCI-H1793; first compound 0.006325 µM): 0.556
- relative viability (NCI-H1793; first compound 0.02 µM): 0.271
- relative viability (NCI-H1793; first compound 0.06325 µM): 0.107
- relative viability (NCI-H1793; first compound 0.2 µM): 0.122
- relative viability (NCI-H1975; first compound 0.002 µM): 0.736
- relative viability (NCI-H1975; first compound 0.006325 µM): 0.632
- relative viability (NCI-H1975; first compound 0.02 µM): 0.592
- relative viability (NCI-H1975; first compound 0.06325 µM): 0.138
- relative viability (NCI-H1975; first compound 0.2 µM): 0.147
- relative viability (NCI-H1915; first compound 0.002 µM): 0.556
- relative viability (NCI-H1915; first compound 0.006325 µM): 0.506
- relative viability (NCI-H1915; first compound 0.02 µM): 0.415
- relative viability (NCI-H1915; first compound 0.06325 µM): 0.477
- relative viability (NCI-H1915; first compound 0.2 µM): 0.0602
- relative viability (NCI-H2023; first compound 0.002 µM): 0.7
- relative viability (NCI-H2023; first compound 0.006325 µM): 0.527
- relative viability (NCI-H2023; first compound 0.02 µM): 0.236
- relative viability (NCI-H2023; first compound 0.06325 µM): 0.0453
- relative viability (NCI-H2023; first compound 0.2 µM): 0.0503
- relative viability (LCLC-103H; first compound 0.002 µM): 0.616
- relative viability (LCLC-103H; first compound 0.006325 µM): 0.718
- relative viability (LCLC-103H; first compound 0.02 µM): 0.661
- relative viability (LCLC-103H; first compound 0.06325 µM): 0.75
- relative viability (LCLC-103H; first compound 0.2 µM): 0.25
- relative viability (A-427; first compound 0.002 µM): 0.855
- relative viability (A-427; first compound 0.006325 µM): 0.319
- relative viability (A-427; first compound 0.02 µM): 0.807
- relative viability (A-427; first compound 0.06325 µM): 0.327
- relative viability (A-427; first compound 0.2 µM): 0.247
- relative viability (LXF-289; first compound 0.002 µM): 0.69
- relative viability (LXF-289; first compound 0.006325 µM): 0.707
- relative viability (LXF-289; first compound 0.02 µM): 1
- relative viability (LXF-289; first compound 0.06325 µM): 0.518
- relative viability (LXF-289; first compound 0.2 µM): 0.147
- relative viability (NCI-H1944; first compound 0.002 µM): 0.549
- relative viability (NCI-H1944; first compound 0.006325 µM): 0.571
- relative viability (NCI-H1944; first compound 0.02 µM): 0.354
- relative viability (NCI-H1944; first compound 0.06325 µM): 0.404
- relative viability (NCI-H1944; first compound 0.2 µM): 0.153
- relative viability (NCI-H520; first compound 0.002 µM): 0.748
- relative viability (NCI-H520; first compound 0.006325 µM): 0.747
- relative viability (NCI-H520; first compound 0.02 µM): 0.624
- relative viability (NCI-H520; first compound 0.06325 µM): 0.197
- relative viability (NCI-H520; first compound 0.2 µM): 0.166
- relative viability (SW 1573; first compound 0.002 µM): 0.742
- relative viability (SW 1573; first compound 0.006325 µM): 0.874
- relative viability (SW 1573; first compound 0.02 µM): 0.212
- relative viability (SW 1573; first compound 0.06325 µM): 0.0903
- relative viability (SW 1573; first compound 0.2 µM): 0.0874
- relative viability (NCI-H522; first compound 0.002 µM): 0.81
- relative viability (NCI-H522; first compound 0.006325 µM): 0.904
- relative viability (NCI-H522; first compound 0.02 µM): 0.772
- relative viability (NCI-H522; first compound 0.06325 µM): 0.607
- relative viability (NCI-H522; first compound 0.2 µM): 0.354
- relative viability (LOU-NH91; first compound 0.002 µM): 0.935
- relative viability (LOU-NH91; first compound 0.006325 µM): 0.872
- relative viability (LOU-NH91; first compound 0.02 µM): 0.647
- relative viability (LOU-NH91; first compound 0.06325 µM): 0.335
- relative viability (LOU-NH91; first compound 0.2 µM): 0.377
- relative viability (NCI-H1993; first compound 0.002 µM): 0.893
- relative viability (NCI-H1993; first compound 0.006325 µM): 0.793
- relative viability (NCI-H1993; first compound 0.02 µM): 0.552
- relative viability (NCI-H1993; first compound 0.06325 µM): 0.246
- relative viability (NCI-H1993; first compound 0.2 µM): 0.238
- relative viability (NCI-H358; first compound 0.002 µM): 0.662
- relative viability (NCI-H358; first compound 0.006325 µM): 0.66
- relative viability (NCI-H358; first compound 0.02 µM): 0.669
- relative viability (NCI-H358; first compound 0.06325 µM): 0.0646
- relative viability (NCI-H358; first compound 0.2 µM): 0.0598
- relative viability (NCI-H2170; first compound 0.002 µM): 0.746
- relative viability (NCI-H2170; first compound 0.006325 µM): 0.698
- relative viability (NCI-H2170; first compound 0.06325 µM): 0.572
- relative viability (NCI-H2170; first compound 0.2 µM): 0.135
